Experimental findings from ChEMBL document CHEMBL1201862, “PubChem BioAssay data set” (2004) are described below.

SMILES strings stand for the structures.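 Each compound was tested at five concentrations against cells in 96-well plates for 48 hours. At the GI50, growth is halved.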 Calls of active or inactive are those of the source. Cut-off read from the data, not from the text of the source: active = GI50 up to about 1.1 µM and inactive = higher.

Test systems include PC-3; SW-620; SK-MEL-5; MDA-MB-231; A498; SF-268; NCI-H460; HL-60; BT-549; NCI-H226; OVCAR-4; HCC 2998; Hs-578T; OVCAR-8; SK-MEL-2; RXF 393; IGROV-1; Malme-3M; MDA-MB-435; SNB-19.
What all share (experiment): DTP human tumour cell line panel, 48 h

The term GI50 denotes the concentration giving 50% growth inhibition. For `CS(=O)(=O)O.[Ag]`, the GI50 with PC-3 was 14.2 µM (inactive); in the assay with SW-620, 3.01 µM (inactive); in the assay on SK-MEL-5, 5.3 µM (inactive); with MDA-MB-231 it was 21.3 µM (inactive); with A498 it was 20.8 µM (inactive); in the assay on SF-268 it was 16 µM (inactive). The GI50 with NCI-H460 was 20.2 µM (inactive); in the assay with HL-60 it was 2.79 µM (inactive); in the assay with BT-549, 20.8 µM (inactive); in the assay with NCI-H226, 25.1 µM (inactive); in the assay with OVCAR-4, 2.33 µM (inactive); in the assay on HCC 2998, 14.2 µM (inactive). In addition, the GI50 in the assay on Hs-578T was 37.7 µM (inactive); in the assay on OVCAR-8 it was 31.6 µM (inactive); with SK-MEL-2, 15.4 µM (inactive); in the assay on RXF 393, 18.8 µM (inactive); in the assay with IGROV-1, 1.6 µM (inactive); in the assay with Malme-3M it was 1.92 µM (inactive). Moreover, the GI50 in the assay on MDA-MB-435 is 2.91 µM (inactive); in the assay with SNB-19 it was 29.3 µM (inactive).

Consider `CC(C)(C)OC(=O)NCC(=O)NC1C/C(=N\O)c2sccc21` (stereo not given), for which the GI50 with PC-3, in the assay on SW-620, in the assay with SK-MEL-5, in the assay with MDA-MB-231, in the assay on A498 and in the assay with SF-268 was > 100 µM (inactive) each time. For the same compound, the GI50 in the assay on NCI-H460, with HL-60, in the assay with BT-549, with NCI-H226, in the assay on OVCAR-4 and with HCC 2998 was > 100 µM (inactive) each time. Besides, the GI50 in the assay on Hs-578T, in the assay on OVCAR-8, in the assay on SK-MEL-2, in the assay on RXF 393, with IGROV-1 and in the assay on Malme-3M was > 100 µM (inactive) in each case. Moreover, the GI50 in the assay on MDA-MB-435 and in the assay with SNB-19 was > 100 µM (inactive) throughout.

In the case of `C=C(C(=O)OC1C(CO)OC(OCC2CC[C@@H]3C[C@]4(OC(=O)C3=C)C(C)=CC(=O)C24)C(O)C1O)[C@@H]1CCC(CO)C2C(=O)C=C(C)[C@@]2(O)C1` (stereo not given in full), the GI50 with PC-3 is 1.54 µM (inactive); in the assay on SW-620, 0.603 µM (active); in the assay with SK-MEL-5, 1.29 µM (inactive); in the assay with MDA-MB-231, 1.64 µM (inactive); in the assay with A498 it was 2.9 µM (inactive); in the assay with SF-268, 3.4 µM (inactive). Further, the GI50 with NCI-H460 is 3.3 µM (inactive); in the assay on HL-60 it was 0.592 µM (active); in the assay on BT-549 it was 1.39 µM (inactive); with NCI-H226, 6.58 µM (inactive); with OVCAR-4, 4.01 µM (inactive); in the assay with HCC 2998 it was 1.61 µM (inactive). For the same compound, the GI50 is 4.09 µM (inactive) in the assay on Hs-578T; 1.43 µM (inactive) in the assay on OVCAR-8; 2.47 µM (inactive) with SK-MEL-2; 0.757 µM (active) with RXF 393; 2.79 µM (inactive) in the assay on IGROV-1; 1.46 µM (inactive) in the assay with Malme-3M. The GI50 in the assay with MDA-MB-435 was 2.09 µM (inactive); in the assay with SNB-19, 16.4 µM (inactive).

In the case of `Cc1nc2ccc(F)cc2c2c1CCN2c1ccc(Cl)cc1`, the GI50 in the assay with PC-3 is 3.85 µM (inactive); in the assay with SW-620, 11.3 µM (inactive); with SK-MEL-5 it was 3.56 µM (inactive); with MDA-MB-231, 4.04 µM (inactive); with A498, 20.9 µM (inactive); in the assay with SF-268 it was 30.8 µM (inactive). Moreover, the GI50 is 7.38 µM (inactive) with NCI-H460; 2.01 µM (inactive) in the assay with HL-60; 19.5 µM (inactive) with BT-549; 9.38 µM (inactive) with NCI-H226; 13.4 µM (inactive) with OVCAR-4; 13.7 µM (inactive) in the assay with HCC 2998. In addition, the GI50 with Hs-578T is 27.6 µM (inactive); in the assay with OVCAR-8 it was 9.71 µM (inactive); with SK-MEL-2, 18.6 µM (inactive); in the assay with RXF 393, 18 µM (inactive); with IGROV-1, 7.73 µM (inactive); with Malme-3M, 10.7 µM (inactive). The GI50 was 6.64 µM (inactive) with MDA-MB-435 and 36.6 µM (inactive) with SNB-19.

For `O=C1/C(=C/c2ccc(Cl)cc2)CCC1CN1CCOCC1` (stereo not given), the GI50 in the assay on PC-3 was 6.19 µM (inactive); with SW-620 it was 2.47 µM (inactive); in the assay with SK-MEL-5, 12.5 µM (inactive); with MDA-MB-231, 3.83 µM (inactive); in the assay with A498, 19.6 µM (inactive); in the assay on SF-268, 14.3 µM (inactive). For the same compound, the GI50 in the assay on NCI-H460 was 14.9 µM (inactive); with HL-60 it was 0.836 µM (active); in the assay with BT-549 it was 11.3 µM (inactive); with NCI-H226, 20.6 µM (inactive); in the assay on OVCAR-4, 17.5 µM (inactive); with HCC 2998 it was 9.75 µM (inactive). Moreover, the GI50 was 4.31 µM (inactive) in the assay with Hs-578T; 6.68 µM (inactive) with OVCAR-8; 16.5 µM (inactive) with SK-MEL-2; 3.76 µM (inactive) with RXF 393; 6.32 µM (inactive) with IGROV-1; 6.52 µM (inactive) with Malme-3M. The results for the GI50 with MDA-MB-435 and in the assay on SNB-19 were 4.6 µM (inactive) and 14.8 µM (inactive), respectively.

On to `COc1ccc(N2C(=O)C3c4[nH]c5ccc(Br)cc5c4C4CCC(C(C)(C)C)CC4C3C2=O)cc1` (stereo not given), for which the GI50 in the assay on PC-3 is > 100 µM (inactive); with SW-620, > 100 µM (inactive); in the assay with SK-MEL-5, > 100 µM (inactive); in the assay with MDA-MB-231, 82 µM (inactive); with A498, > 100 µM (inactive); with SF-268, > 100 µM (inactive). Moreover, the GI50 in the assay with NCI-H460, in the assay on HL-60, in the assay on BT-549, in the assay on NCI-H226, in the assay with OVCAR-4 and in the assay with HCC 2998 was > 100 µM (inactive) in each case. Also, the GI50 in the assay on Hs-578T was > 100 µM (inactive); in the assay with OVCAR-8, > 100 µM (inactive); in the assay with SK-MEL-2, > 100 µM (inactive); in the assay on RXF 393, > 100 µM (inactive); in the assay with IGROV-1, > 100 µM (inactive); in the assay with Malme-3M it was 91.8 µM (inactive). The GI50 in the assay on MDA-MB-435 and with SNB-19 was > 100 µM (inactive) each time.

Regarding `C=C1C(=O)OC2CC(C)C(C(CC(C)=O)OC(C)=O)=CCC12` (stereo not given), the GI50 in the assay on PC-3 was 19.3 µM (inactive); in the assay with SW-620, 3.03 µM (inactive); with SK-MEL-5, 14.2 µM (inactive); in the assay on MDA-MB-231, 13.5 µM (inactive); with A498, 18.7 µM (inactive); in the assay on SF-268, 22.5 µM (inactive). Further, the GI50 in the assay on NCI-H460 was 17 µM (inactive); in the assay on HL-60 it was 3.25 µM (inactive); in the assay on BT-549, 6.19 µM (inactive); with NCI-H226 it was 34.1 µM (inactive); in the assay with OVCAR-4 it was 17 µM (inactive); in the assay with HCC 2998, 10.5 µM (inactive). Further, the GI50 is > 100 µM (inactive) in the assay on Hs-578T; 18.9 µM (inactive) with OVCAR-8; 18 µM (inactive) with SK-MEL-2; 15.9 µM (inactive) in the assay with RXF 393; 13.3 µM (inactive) in the assay on IGROV-1; 2.02 µM (inactive) in the assay with Malme-3M. Besides, the GI50 with MDA-MB-435 is 16.3 µM (inactive); in the assay on SNB-19, 36.6 µM (inactive).
